Values quoted from earlier work, collected in article PMC6264278, “Corydaline Inhibits Multiple Cytochrome P450 and UDP-Glucuronosyltransferase Enzyme Activities in Human Liver Microsomes” (Molecules, 2011).
pIC50, pKi: −log10 of the molar value.

Columns and labels:
CYP2D6 = system: CYP2D6; parameters: method as in PMID 21425377, PMID 14570772; conditions: read-out: IC50, inhibitory effect on CYP2D6 activity; cited from earlier work
UGT1A9 = system: UGT1A9; parameters: method as in PMID 21245288; conditions: read-out: Ki, UGT1A9 inhibition; cited from earlier work
CYP2C9 = conditions: read-out: IC50, CYP2C9 inhibition; cited from earlier work

COc1ccc2cc3[n+](cc2c1OC)CCc1cc2c(cc1-3)OCO2 [berberine]
pIC50 (CYP2D6): 4.31

O=C(O)c1cccnc1Nc1cccc(C(F)(F)F)c1 [niflumic acid]
pKi (UGT1A9): 6.40 to 7.00

COc1cc2c(cc1OC)-c1cc3ccc(OC)c(OC)c3c[n+]1CC2 [palmatine]
pIC50 (CYP2D6): 4.03
